pKi: −log10 of the molar value.
Biological target: Sigma non-opioid intracellular receptor 1 (Cavia porcellus)
Assay: Displacement of [3H]-(+) -3PPP from sigma receptor in guinea pig brain membranes

Compound	pKi
CC(CN(C)CCc1ccc(Cl)c(Cl)c1)N(C)C (stereo unspecified)	8.82
CCN(CCc1ccc(Cl)c(Cl)c1)CCN1CCCC1	9.29
CN(C)CCNCCc1ccc(Cl)c(Cl)c1	7.70
CNCCN(C)CCc1ccc(Cl)c(Cl)c1	8.24
CCN(CC)CCN(C)CCc1ccc(Cl)c(Cl)c1	9.14

Other lines, results leading:

pKi	Compound
8.74	CN(CCCN1CCCC1)CCc1ccc(Cl)c(Cl)c1
9.42	CN(CCN1CCCC1)Cc1ccc(Cl)c(Cl)c1
8.13	CN(CCc1ccccc1)CCN1CCCC1
8.85	C=CCN(CCc1ccc(Cl)c(Cl)c1)CCN1CCCC1
8.82	CN(CCc1ccc(Cl)cc1)CCN1CCCC1
8.68	CN(CCc1ccc2ccccc2c1)CCN1CCCC1

— BindingDB's records for doi:10.1021/jm00079a004 (National Institute of Diabetes and Digestive and Kidney …, 1992)
